Patent publication US20220334127A1, “IN VITRO METHOD FOR OBTAINING CLINICAL DATA IN PATIENTS SUFFERING FROM AN INFLAMMATORY DISEASE” (FUNDACIÓN PARA LA FORMACIÓN E INVESTIGACIÓN SANITARIAS DE …, priority 2019, published 2022)

How the values were obtained:
HIF-1α = HIF-1α staining in human monocytes by flow cytometry; assay type: cell-based; conditions: ATP 1 mM 30 min; for HIF-1α expression induced by ATP treatment: AZ11645373 10 μM or PDTC 10 μM (FIG. 7e); for HIF-1α expression by the agent itself: washed, cultured 2 h (FIG. 7e)
Description: Human peripheral blood mononuclear cells (PBMCs) were isolated from blood within one hour after extraction using Ficoll histopaque 1077 (Sigma-Aldrich). […] Cells were treated with ATP (Sigma-Aldrich), antimycin A (Sigma-Aldrich) or FCCP (Sigma-Aldrich) in the presence or absence of PDTC (Sigma-Aldrich) or echinomycin (Sigma-Aldrich) in E-total buffer (147 mM NaCl, 10 mM HEPES, 13 mM glucose, 2 mM CaCl2), 1 mM MgCl2, and 2 mM KCl) and then washed and stimulated with E. coli LPS O55:B5 in their respective complete media. […] After LPS treatment, cells were incubated with P2X7 modulating nanobodies, the specific P2X7 receptor antagonist A438079 or AZ11645373 (Tocris), and then subsequently stimulated with ATP or nigericin (Sigma-Aldrich) in E-total buffer. Times and concentrations for the reagents used are specified in the figure legends.
HIF-1α expression was detected in CD14^+ monocytes using Alexa Fluor-647 mouse anti-human HIF-1α (BD Biosciences, Clone 54) at 1:1000 dilution.

NLRP3 inflammasome [1] = test: IL-1β release from BMDMs pre-treated, washed, LPS-primed and stimulated with nigericin; assay type: cell-based, mouse; conditions: for IL-1β release after mitochondrial depolarizing agent: wild type or P2rx7−/− BMDMs, antimycin A 5 μM or FCCP 1 μM 30 min, then LPS 1 μg/ml 4 h, nigericin 10 μM 30 min (FIG. 6d)
Description: FIG. 6. P2X7 receptor stimulation induces an impairment of the NLRP3 inflammasome in monocytes. (a-b) Percentage of monocytes with ASC-specks (a) and release of […] from PBMCs (b) isolated from healthy donor blood samples treated with ATP (3 mM, 30 min; ATP-pre), then washed and primed with or without LPS (1 μg/ml, 2 h) and then treated for 20 min with ATP (3 mM; ATP-post) or nigericin (10 μM) as indicated. (c) IL-1β release from wild type or P2rx7^−/− BMDMs treated as in a, but with 4 h LPS priming and 30 min of ATP or nigericin. (d) IL-1β release from wild type or P2rx7^−/− BMDMs treated for 30 min with antimycin A (5 μM) or FCCP (1 μM) and then washed and primed with LPS (1 μg/ml, 4 h) and then stimulated with nigericin (10 μM, 30 min) as indicated. (e) Expression of Nrlp3 and Illb genes analyzed by quantitative PCR from wild type or P2rx7^−/− BMDMs treated with ATP (3 mM, 30 min; ATP-pre), then washed and primed with or without LPS (100 ng/ml, 4 h). (f) Kaplan-Meier representation of wild type (top) or P2rx7^−/− (bottom) mice survival after sham operation (dotted line), or CLP operation (continuous line); some mice groups were i.p. injected with ATP (0.5 mg/g) 30 min before operation (dashed lines). Wild type CLP n=10, CLP+ATP n=8, sham n=4, sham+ATP n=4; P2rx7^−/− CLP n=4, CLP+ATP n=6, sham n=3. (g) IL-1β from peritoneal lavage (left) or bacterial load in blood (right) from wild type sham, CLP or CLP+ATP mice after 24 h. Each dot represents a single independent experiment (c,d), a sample from an individual healthy donor (a,b,e) or a single mouse (g); average±standard error is represented in panels a-e,g; *p<0.05; **p<0.01; ns, no significant difference (p>0.05); Mann-Whitney test was used for a,b,d,e; Kruskal-Wallis test was used for c; Long-rank test for f.
(§1) FIG. 7. Mitochondrial dysfunction mediates P2X7 receptor induced NLRP3 inflammasome impairment. (a) Mitochondrial membrane depolarization in BMDMs treated with ATP (3 mM, 30 min), then washed out and incubated for the indicated times in the absence or presence of LPS (1 μg/ml) as indicated. […] (e) Representative histogram plot of HIF-1α staining (left) or quantification of HIF-1α mean intensity fluorescence increase (ΔMFI, right) in monocytes isolated from healthy donor blood samples and treated or not with ATP (1 mM, 30 min) in the presence or absence of AZ11645373 (10 μM) or PDTC (10 μM), and then washed and cultured for 2 h; non-stained monocytes (light grey, left). […] (g) Expression of HIF1A gene analyzed by quantitative PCR from control surgery group and septic patients PBMCs; septic patients are separated into NLRP3 non-immunocompromised (grey bar) and immunocompromised (black bar). […]

Cell death (LDH assay) = assay type: cell-based
Description: Presence of LDH in cell-free supernatants was measured using the Cytotoxicity Detection kit (Roche) following the manufacturer's instructions.

Nlrp3 and Illb = test: Quantitative PCR of Nlrp3 and Il1b gene induction by LPS; assay type: cell-based, mouse
Description: FIG. 6. P2X7 receptor stimulation induces an impairment of the NLRP3 inflammasome in monocytes. (a-b) Percentage of monocytes with ASC-specks (a) and release of […] from PBMCs (b) isolated from healthy donor blood samples treated with ATP (3 mM, 30 min; ATP-pre), then washed and primed with or without LPS (1 μg/ml, 2 h) and then treated for 20 min with ATP (3 mM; ATP-post) or nigericin (10 μM) as indicated. (c) IL-1β release from wild type or P2rx7^−/− BMDMs treated as in a, but with 4 h LPS priming and 30 min of ATP or nigericin. (d) IL-1β release from wild type or P2rx7^−/− BMDMs treated for 30 min with antimycin A (5 μM) or FCCP (1 μM) and then washed and primed with LPS (1 μg/ml, 4 h) and then stimulated with nigericin (10 μM, 30 min) as indicated. (e) Expression of Nrlp3 and Illb genes analyzed by quantitative PCR from wild type or P2rx7^−/− BMDMs treated with ATP (3 mM, 30 min; ATP-pre), then washed and primed with or without LPS (100 ng/ml, 4 h). […]
Detailed methods used for qRT-PCR have been described in the prior art. Relative gene expression levels were calculated using the 2^−ΔCt method normalizing to Hprt1 expression as endogenous control.

BMDMs = test: ATP-induced mitochondrial membrane depolarization in BMDMs with or without antioxidant; assay type: cell-based, mouse; conditions: ATP 3 mM 30 min, PDTC 40 μM (FIG. 7c)
Description: as §1, with “indicated. (b) IL-1β release from wild-type BMDMs treated as in a, but after LPS priming cells were stimulated with nigericin (10 μM, 30 min). (c) Mitochondrial membrane depolarization in BMDMs treated with ATP (3 mM, 30 min) in the presence or absence pyrrolidine dithiocarbamate (PDTC, 40 μM).” for “indicated.”

NLRP3 inflammasome [2] = test: IL-1β release from PBMCs of healthy donors pre-treated with ATP, LPS-primed and stimulated with nigericin; assay type: cell-based; conditions: human PBMCs, ATP-pre 1 mM 30 min with PDTC 10 μM, LPS 1 μg/ml 4 h, nigericin 10 μM 30 min (FIG. 7d)
Description: as §1, with “indicated. (b) IL-1β release from wild-type BMDMs treated as in a, but after LPS priming cells were stimulated with nigericin (10 μM, 30 min). (c) Mitochondrial membrane depolarization in BMDMs treated with ATP (3 mM, 30 min) in the presence or absence pyrrolidine dithiocarbamate (PDTC, 40 μM).” for “indicated.”

Compound	HIF-1α expression induced by ATP treatment (HIF-1α)	IL-1β release after mitochondrial depolarizing agent (NLRP3 inflammasome [1])	HIF-1α expression by the agent itself (HIF-1α)	cell death (Cell death (LDH assay))	also measured
O=C1CSC(=O)N1C(CCc1ccncc1)COc1ccc(-c2cccc([N+](=O)[O-])c2)cc1 (stereo not drawn) [AZ116]	able to prevent it				
antimycin A		reduced	did not increase	did not induce cell death	Nlrp3 and Illb gene induction by LPS (Nlrp3 and Illb): reduced
S=C(S)N1CCCC1 [PDTC, pyrrolidine dithiocarbamate]	able to prevent it				ATP-induced mitochondrial membrane depolarization (BMDMs): able to protect; production of IL-1β after ATP stimulation before LPS-priming and NLRP3 activation (NLRP3 inflammasome [2]): restored
CS[C@H]1SC[C@H]2C(=O)N(C)[C@@H](C(C)C)C(=O)OC[C@@H](NC(=O)c3cnc4ccccc4n3)C(=O)N[C@@H](C)C(=O)N(C)[C@@H]1C(=O)N(C)[C@@H](C(C)C)C(=O)OC[C@@H](NC(=O)c1cnc3ccccc3n1)C(=O)N[C@@H](C)C(=O)N2C [echinomycin]					production of IL-1β after ATP stimulation before LPS-priming and NLRP3 stimulation (NLRP3 inflammasome [1]; BMDMs, ATP-pre 3 mM 30 min with echinomycin 5 nM, LPS 1 μg/ml 4 h, nigericin 10 μM 30 min (FIG. 7f)): restored
N#CC(C#N)=NNc1ccc(OC(F)(F)F)cc1 [FCCP]		reduced	did not increase	did not induce cell death	
